Results: patent US20120225834A1, “OCULAR IONTOPHORESIS OF CHARGED MICELLES CONTAINING BIOACTIVE AGENTS” (EYEGATE PHARMACEUTICALS, INC., priority 2009, published 2012)
Read-outs that look alike come from different tables or passages of the source.

Experiment: Solubilization of sparingly soluble compounds using quaternary ammonium cationic surfactants (dissolved concentration by HPLC)
Format: physicochemical
Experimental: Aqueous solubility of dexamethsone, a corticosteroid, and natamycin, an antifungal agent, was increased by using quaternary ammonium cationic surfactants cetyltrimethylammonium bromide (CTAB), ditetradecyldimethylammonium bromide (TMAB), and dioctadecyldimethylammonium chloride (OMAC). Stock solutions of surfactants were prepared by adding water to the surfactant and mixing under low shear at room temperature. The stock solution of CTAB and TMAB was prepared at 10 mg/mL and 20 mg/mL in WFI (water for injection) whereas the stock solution of OMAC was only prepared at 10 mg/mL due to gel formation at 20 mg/mL. Surfactant solutions with different concentrations were then prepared by diluting the corresponding stock solution with WFI.
Dexamethasone (or natamycin) was added to each surfactant solution in such quantity to precipitate. The mixture was sonicated for one hour in a sonication water tank and then stirred overnight.
Dissolved dexamethasone (or natamycin) concentration was analyzed on HPLC following two different procedures: (1) An aliquot of the mixture was centrifuged at 10 k RPM (9.3 k×g relative gravitational force) for 30 min. Clear supernatant was then analyzed on HPLC; (2) An aliquot of the mixture was filtered through a syringe filter (Acrodisc®, Supor membrane, 0.2 micrometers), and then analyzed on HPLC. […]

SMILES | Aqueous solubility (in aqueous solutions of quaternary ammonium cationic surfactants CTAB, TMAB and OMAC in WFI, sonicated one hour, stirred overnight, HPLC after centrifugation or 0.2 micrometer filtration) | Aqueous solubility
C[C@@H]1C[C@H]2[C@@H]3CCC4=CC(=O)C=C[C@]4(C)[C@@]3(F)[C@@H](O)C[C@]2(C)[C@@]1(O)C(=O)CO [dexamethsone, dexamethasone] | increased | –
C[C@@H]1C/C=C/C=C/C=C/C=C/[C@H](O[C@@H]2O[C@H](C)[C@@H](O)[C@H](N)[C@@H]2O)C[C@@H]2O[C@](O)(C[C@@H](O)C[C@H]3O[C@@H]3/C=C/C(=O)O1)C[C@H](O)[C@H]2C(=O)O [natamycin] | – | increased
